According to PubChem BioAssay AID256 (DTP/NCI, 2004):
“And” between values parts separate entries of the source, which are not always exact repeats. Equal values may be shown once. Inconclusive results and toxic doses are left out. How the source made its calls: active means survival T/C of 150% or more; inactive means T/C below 125% in these data.

Tested on: CD2F1 mice, L1210 leukemia ip, survival T/C
Assay: NCI In Vivo Anticancer Drug Screen. Data for tumor model L1210 Leukemia (intraperitoneal) in CD2F1 (CDF1) mice
Settings: higher = longer survival
Method in brief: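 Each value reflects a quotient of treated over vehicle control outcomes in mice with a transplanted tumor.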

[1] = endpoint: mean survival time, dose: 100.0 mg/kg/injection, schedule: Q01DX009 (ip), vehicle: saline with Tween-80
[2] = endpoint: mean survival time, dose: 200.0 mg/kg/injection, schedule: Q01DX009 (ip), vehicle: saline with Tween-80
[3] = endpoint: mean survival time, dose: 400.0 mg/kg/injection, schedule: Q01DX009 (ip), vehicle: saline with Tween-80
[4] = endpoint: mean survival time, dose: 100.0 mg/kg/injection, schedule: Q01DX001 (ip), vehicle: saline
[5] = endpoint: mean survival time, dose: 200.0 mg/kg/injection, schedule: Q01DX001 (ip), vehicle: saline
[6] = endpoint: mean survival time, dose: 100.0 mg/kg/injection, schedule: Q04DX003 (ip), vehicle: saline with Tween-80
[7] = endpoint: mean survival time, dose: 200.0 mg/kg/injection, schedule: Q04DX003 (ip), vehicle: saline with Tween-80
[8] = endpoint: mean survival time, dose: 400.0 mg/kg/injection, schedule: Q04DX003 (ip), vehicle: saline with Tween-80

Measured: T/C

CC[C@]1(O)C[C@H]2CN(CCc3c([nH]c4ccccc34)[C@@](C(=O)OC)(c3cc4c(cc3OC)N(C=O)[C@H]3[C@@](O)(C(=O)OC)[C@H](OC(C)=O)[C@]5(CC)C=CCN6CC[C@]43[C@@H]65)C2)C1
inactive: endpoint: mean survival time, dose: 0.08 mg/kg/injection, schedule: Q01DX009 (ip), vehicle: water 121 % of control | endpoint: mean survival time, dose: 0.13 mg/kg/injection, schedule: Q01DX009 (ip), vehicle: water 122 % of control | endpoint: mean survival time, dose: 0.2 mg/kg/injection, schedule: Q04DX003 (ip), vehicle: saline 115 % of control | endpoint: mean survival time, dose: 0.2 mg/kg/injection, schedule: Q04DX003 (ip), vehicle: water 106 % of control | endpoint: mean survival time, dose: 0.23 mg/kg/injection, schedule: Q04DX003 (ip), vehicle: water 121 % of control and 98 % of control | endpoint: mean survival time, dose: 0.36 mg/kg/injection, schedule: Q01DX009 (ip), vehicle: water 104 % of control | endpoint: mean survival time, dose: 0.39 mg/kg/injection, schedule: Q04DX003 (ip), vehicle: water 118 % of control and 108 % of control | endpoint: mean survival time, dose: 0.4 mg/kg/injection, schedule: Q04DX003 (ip), vehicle: water 106 % of control and 112 % of control | endpoint: mean survival time, dose: 0.5 mg/kg/injection, schedule: Q01DX009 (ip), vehicle: saline 102 % of control | endpoint: mean survival time, dose: 0.5 mg/kg/injection, schedule: Q04DX004 (ip), vehicle: saline 117 % of control and 120 % of control and 112 % of control | endpoint: mean survival time, dose: 0.65 mg/kg/injection, schedule: Q04DX003 (ip), vehicle: water 112 % of control | endpoint: mean survival time, dose: 0.8 mg/kg/injection, schedule: Q04DX003 (ip), vehicle: water 103 % of control and 110 % of control | endpoint: mean survival time, dose: 1.0 mg/kg/injection, schedule: Q01DX009 (ip), vehicle: saline 68 % of control and 73 % of control | endpoint: mean survival time, dose: 1.0 mg/kg/injection, schedule: Q04DX004 (ip), vehicle: saline 119 % of control | endpoint: mean survival time, dose: 1.08 mg/kg/injection, schedule: Q04DX003 (ip), vehicle: water 118 % of control | endpoint: mean survival time, dose: 1.5 mg/kg/injection, schedule: Q04DX003 (ip), vehicle: saline 121 % of control | endpoint: mean survival time, dose: 1.5 mg/kg/injection, schedule: Q04DX004 (ip), vehicle: saline 119 % of control | endpoint: mean survival time, dose: 1.6 mg/kg/injection, schedule: Q04DX003 (ip), vehicle: saline 120 % of control | endpoint: mean survival time, dose: 1.6 mg/kg/injection, schedule: Q04DX003 (ip), vehicle: water 117 % of control and 108 % of control | endpoint: mean survival time, dose: 78.0 micrograms/kg/injection, schedule: Q01DX009 (ip), vehicle: water 102 % of control | endpoint: mean survival time, dose: 130.0 micrograms/kg/injection, schedule: Q01DX009 (ip), vehicle: water 108 % of control | endpoint: mean survival time, dose: 216.0 micrograms/kg/injection, schedule: Q01DX009 (ip), vehicle: water 114 % of control | endpoint: mean survival time, dose: 360.0 micrograms/kg/injection, schedule: Q01DX009 (ip), vehicle: water 124 % of control | endpoint: median survival time, dose: 62.5 micrograms/kg/injection, schedule: Q01DX009 (ip), vehicle: water 115 % of control | endpoint: median survival time, dose: 125.0 micrograms/kg/injection, schedule: Q01DX009 (ip), vehicle: water 121 % of control | endpoint: median survival time, dose: 1000.0 micrograms/kg/injection, schedule: Q01DX009 (ip), vehicle: water 95 % of control

Nc1ccc2[nH]c(-c3ccc(S(=O)(=O)F)cc3)cc(=O)c2c1
inactive: [1] 102 % of control | [2] 106 % of control | [3] 113 % of control

O=C1NC(CN2CCOCC2)C(=O)NC1CN1CCOCC1 (stereo not given)
inactive: endpoint: mean survival time, dose: 3.13 mg/kg/injection, schedule: Q01DX009 (ip), vehicle: water 105 % of control | endpoint: mean survival time, dose: 6.25 mg/kg/injection, schedule: Q01DX009 (ip), vehicle: water 105 % of control | endpoint: mean survival time, dose: 12.5 mg/kg/injection, schedule: Q01DX009 (ip), vehicle: water 103 % of control | endpoint: mean survival time, dose: 25.0 mg/kg/injection, schedule: Q01DX009 (ip), vehicle: water 100 % of control | endpoint: mean survival time, dose: 50.0 mg/kg/injection, schedule: Q01DX009 (ip), vehicle: water 101 % of control | endpoint: mean survival time, dose: 100.0 mg/kg/injection, schedule: Q01DX009 (ip), vehicle: water 106 % of control

CCOC(=O)c1c(C)c2c(n1C)CC/C(=C\O)C2=O
inactive: endpoint: mean survival time, dose: 25.0 mg/kg/injection, schedule: Q04DX002 (ip), vehicle: other 100 % of control | endpoint: mean survival time, dose: 50.0 mg/kg/injection, schedule: Q04DX002 (ip), vehicle: other 96 % of control | endpoint: mean survival time, dose: 100.0 mg/kg/injection, schedule: Q04DX002 (ip), vehicle: other 88 % of control and 96 % of control

Cc1ccc(S(=O)(=O)SC(F)(F)F)cc1
inactive: endpoint: mean survival time, dose: 5.0 mg/kg/injection, schedule: Q01DX001 (ip), vehicle: saline 106 % of control | endpoint: mean survival time, dose: 10.0 mg/kg/injection, schedule: Q01DX001 (ip), vehicle: saline 104 % of control

CSc1nc(NC2OCC(O)C(O)C2O)c(Br)c(=O)[nH]1 (stereo not given)
inactive: endpoint: median survival time, dose: 12.5 mg/kg/injection, schedule: Q01DX005 (ip), vehicle: saline with Tween-80 101 % of control | endpoint: median survival time, dose: 25.0 mg/kg/injection, schedule: Q01DX005 (ip), vehicle: saline with Tween-80 101 % of control | endpoint: median survival time, dose: 50.0 mg/kg/injection, schedule: Q01DX005 (ip), vehicle: saline with Tween-80 101 % of control | endpoint: median survival time, dose: 100.0 mg/kg/injection, schedule: Q01DX005 (ip), vehicle: saline with Tween-80 101 % of control | endpoint: median survival time, dose: 200.0 mg/kg/injection, schedule: Q01DX005 (ip), vehicle: saline with Tween-80 101 % of control

CCOC(=O)C(F)(C(=O)OCC)[N+](=O)[O-]
inactive: endpoint: mean survival time, dose: 50.0 mg/kg/injection, schedule: Q04DX003 (ip), vehicle: saline 102 % of control | [4] 101 % of control | endpoint: mean survival time, dose: 100.0 mg/kg/injection, schedule: Q04DX003 (ip), vehicle: saline 100 % of control | [5] 104 % of control | endpoint: mean survival time, dose: 200.0 mg/kg/injection, schedule: Q04DX003 (ip), vehicle: saline 88 % of control

CCCCCC(CN(C)C)C(=O)/C=C/c1c(Cl)cccc1Cl (stereo not given)
inactive: endpoint: mean survival time, dose: 6.25 mg/kg/injection, schedule: Q01DX009 (ip), vehicle: other 101 % of control | endpoint: mean survival time, dose: 12.5 mg/kg/injection, schedule: Q01DX009 (ip), vehicle: other 101 % of control | endpoint: mean survival time, dose: 25.0 mg/kg/injection, schedule: Q01DX009 (ip), vehicle: other 104 % of control | endpoint: mean survival time, dose: 100.0 mg/kg/injection, schedule: Q01DX001 (ip), vehicle: Klucel (hydroxypropylcellulose) (HPC) 94 % of control

C(=N\Nc1nc2ccccc2s1)/c1ccccc1
inactive: endpoint: mean survival time, dose: 100.0 mg/kg/injection, schedule: Q04DX003 (ip), vehicle: Klucel (hydroxypropylcellulose) (HPC) 100 % of control | endpoint: mean survival time, dose: 200.0 mg/kg/injection, schedule: Q04DX003 (ip), vehicle: Klucel (hydroxypropylcellulose) (HPC) 105 % of control | endpoint: mean survival time, dose: 400.0 mg/kg/injection, schedule: Q04DX003 (ip), vehicle: Klucel (hydroxypropylcellulose) (HPC) 92 % of control

CN1CCc2c(c3ccccc3c3ccccc23)C1
inactive: endpoint: mean survival time, dose: 3.12 mg/kg/injection, schedule: Q01DX009 (ip), vehicle: Klucel (hydroxypropylcellulose) (HPC) 104 % of control | endpoint: mean survival time, dose: 6.25 mg/kg/injection, schedule: Q01DX009 (ip), vehicle: Klucel (hydroxypropylcellulose) (HPC) 101 % of control | endpoint: mean survival time, dose: 12.5 mg/kg/injection, schedule: Q01DX009 (ip), vehicle: Klucel (hydroxypropylcellulose) (HPC) 97 % of control | endpoint: mean survival time, dose: 25.0 mg/kg/injection, schedule: Q01DX009 (ip), vehicle: Klucel (hydroxypropylcellulose) (HPC) 95 % of control | endpoint: mean survival time, dose: 50.0 mg/kg/injection, schedule: Q01DX009 (ip), vehicle: Klucel (hydroxypropylcellulose) (HPC) 106 % of control | endpoint: mean survival time, dose: 100.0 mg/kg/injection, schedule: Q01DX009 (ip), vehicle: Klucel (hydroxypropylcellulose) (HPC) 113 % of control

[N-]=[N+]=Nc1cc(NC(=O)c2ccccc2)ccc1NC(=O)c1ccccc1
inactive: endpoint: mean survival time, dose: 50.0 mg/kg/injection, schedule: Q01DX009 (ip), vehicle: saline with Tween-80 101 % of control | [1] 96 % of control | [2] 104 % of control

N#CC(C#N)=C1c2ccccc2C(=O)c2ccccc21
inactive: [1] 90 % of control | [2] 86 % of control | [3] 90 % of control

CN(C)/C=N/N=C1c2ccccc2-c2ccccc21
inactive: [1] 93 % of control | [6] 100 % of control | [2] 98 % of control | [7] 94 % of control | [3] 90 % of control | [8] 101 % of control

O=C(Nc1cccc(S(=O)(=O)F)c1)c1cccc([N+](=O)[O-])c1
inactive: [6] 105 % of control | [7] 102 % of control | [8] 96 % of control

CC(C)(C)C=O
inactive: endpoint: mean survival time, dose: 100.0 mg/kg/injection, schedule: Q01DX009 (ip), vehicle: saline 95 % of control | endpoint: mean survival time, dose: 200.0 mg/kg/injection, schedule: Q01DX009 (ip), vehicle: saline 102 % of control | endpoint: mean survival time, dose: 400.0 mg/kg/injection, schedule: Q01DX009 (ip), vehicle: saline 96 % of control

C=Cc1cc[n+](CCCCCC[n+]2ccc(C=C)cc2)cc1
inactive: [4] 92 % of control | [5] 92 % of control | endpoint: mean survival time, dose: 400.0 mg/kg/injection, schedule: Q01DX001 (ip), vehicle: saline 88 % of control

CCN(C(=O)Nc1ccc(Cl)cc1)c1ccccc1
inactive: [1] 97 % of control | [2] 100 % of control | [3] 96 % of control

O=C1CNC(c2ccccc2)C(c2ccccc2)N1 (stereo not given)
inactive: [6] 100 % of control | [7] 102 % of control | [8] 101 % of control
